Calls of active or inactive are those of the source. The calls are words filed in the database; no cut-off is given here.
Legend:
HT-1080 [1] = experiment: Inhibition of NF-kappaB promoter activity in human HT1080 cells; format: functional, cell-based
HT-1080 [2] = experiment: Toxicity against human HT1080 cells assessed as cell viability after 24 hrs by MTT assay; format: cell-based; conditions: ht-1080, 24 h
HT-1080 [3] = experiment: Inhibition of MMP2 expression in human HT1080 cells; format: functional, cell-based
MRC5 = experiment: Toxicity against human MRC5 cells assessed as cell viability after 24 hrs by MTT assay; format: cell-based; conditions: mrc5, 24 h
HT-1080 [4] = experiment: Inhibition of PMA-stimulated activator protein-1 promotor activity in human HT1080 cells; format: functional, cell-based
HT-1080 [5] = experiment: Inhibition of MMP9 expression in human HT1080 cells; format: functional, cell-based

N[C@@H](C=O)[C@@H](O)[C@H](O)[C@H](O)COS(=O)(=O)O
Activity (HT-1080 [1]): Dose-dependent effect
Activity (HT-1080 [2]): Active
Activity (HT-1080 [3]): Dose-dependent effect
Activity (MRC5): Active
Activity (HT-1080 [4]): inactive
Activity (HT-1080 [5]): Dose-dependent effect
